According to patent US20040096436A1, “Methods for inhibiting protein kinases in cancer cells” (priority 2002, published 2004):

Columns and labels:
activated PBL = assay: α-tubulin polymerization assay in PBL activated with anti-CD3 and anti-CD28 antibodies; type: cell-based, human; conditions: PBL activated 24 hrs with anti-CD3 and anti-CD28, paclitaxel for one hour
Description: (§1) All primary cells were cultured in RPMI 1640 medium with 20% fetal bovine serum (regular medium) at a density of 2-5×10^6 cell/ml. In some cases, the PBL were stimulated for 24 hours with 1 μg/ml anti-CD3 and anti-CD28 antibodies (Alexis, San Diego, Calif.) prior to immunoblot analysis.
(§2) α-tubulin Polymerization Assay.
After a brief but vigorous vortex, the lysates were incubated at room temperature for 5 minutes, and then centrifuged at 16,000×g for 5 minutes to separate the soluble from polymerized α-tubulin. The supernatant and pellet fractions were resolved on 10-20% pre-cast tris-glycine gels (Novex, San Diego, Calif.) and then subjected to immune blotting with a specific anti-α-tubulin antibody.
The cytosolic (S) monomeric and particulate-bound (P) polymerized forms of α-tubulin were separated by centrifugation from drug-treated cells and assayed by immunoblotting.

CLL cells = assay: α-tubulin polymerization assay in CLL cells; type: cell-based, human; conditions: paclitaxel
Description: The Institutional Review Board of the University of California, San Diego approved this study, and all patients gave informed written consent to participation. Subjects had CLL according to National Cancer Institute (NCI) criteria of any Rai stage. None of the patients were in active chemotherapeutic treatments. Flow cytometric analysis determined that all specimens contained more than 90% CD5+ CD19+ B cells.
Peripheral blood from CLL patients or normal donors was layered on top of Ficoll-Paque Plus (Pharmacia, NJ) and centrifuged at 1200×g for twenty minutes. The enriched peripheral blood mononuclear cells (PBL) were washed several times with Ca++, Mg++-free HBSS.
as §1, §2
For each data point, 2×10^6 of cells were incubated in 2ml of regular medium containing drugs for various periods of time. The cells were then washed twice at room temperature, and resuspended in 50 μl of α-tubulin extraction buffer (1 mM MgCl2, 2 m MEGTA, 0.5% NP-40, 20 mM Tris-HCl, pH=6.8) supplemented with 2 mM phenylmethysulfonyl fluoride, and a protease inhibitor cocktail (Sigma). […]

Question: Which results are given for CC(=O)O[C@H]1C(=O)[C@@]2(C)[C@H]([C@H](OC(=O)c3ccccc3)[C@]3(O)C[C@H](OC(=O)[C@H](O)[C@@H](NC(=O)c4ccccc4)c4ccccc4)C(C)=C1C3(C)C)[C@]1(OC(C)=O)CO[C@@H]1C[C@@H]2O [paclitaxel]?
Answer: α-tubulin in the particulate fraction after treatment (activated PBL): shift of α-tubulin to the particulate-bound fraction; α-tubulin relocalization to the particulate fraction after treatment (CLL cells): nearly complete relocalization of α-tubulin to the particulate fraction
